Assay results published in patent US9301961B2, “Autoimmune and inflammatory disorder therapy” (Katholieke Universiteit Leuven, K.U. Leuven R&D, priority 2011, dated 2016).
Read-outs that look alike come from different tables or passages of the source.

Key:
LOK = biological target: T1, LOK (Homo sapiens, UniProt O94804); assay: Kinase-tagged phage competition binding assay (qPCR), 382-kinase library
T1 construct: made in house; host or cells: E. coli BL21-derived host (T7 phage) or HEK-293

PI4KA (PI4K alpha) = biological target: T2, PI4KA (PI4K alpha) (Homo sapiens, UniProt P42356); assay: Commercial kinase activity assay (Invitrogen, ADP TR-FRET); type: biochemical; settings: 10 μM test compound
T2 construct: purchased Invitrogen

[1] = system: Peripheral blood mononuclear cells (PBMCs) mixed with mitomycin C treated RPMI1788 cells; assay: Mixed lymphocyte reaction (MLR) assay, 3H-thymidine uptake
Excerpt: In the MLR assay PBMCs from two individuals are mixed together in tissue culture for several days. […] In the one-way MLR test, the mononuclear cells from one of the individuals are inactivated (usually by treatment with mitomycin C or irradiation), thereby allowing only the untreated remaining population of mononuclear cells, such as lymphocytes, to proliferate in response to foreign histocompatibility antigens.
The immunosuppressive effect of test compounds was also investigated using MLR assays. Peripheral blood mononuclear cells (PBMCs) were isolated from heparinized blood of healthy donors by density-gradient centrifugation over Lymphoprep. […] RPMI1788 cells were treated with 30 μg/mL mitomycin C for 20 min at 37° C., washed four times with medium, and finally suspended in complete RPMI medium to a density of 0.45×10^6 cells/mL. An amount of 100 μL of each cell suspension was mixed with 20 μL of diluted compound. The mixed cells were cultured at 37° C. for 6 days in 5% CO2. […] Thereafter, the cells were harvested on glass filter paper and the counts per minute (cpm) determined in a liquid scintillation counter.

PAK1 = biological target: T3, PAK1 (Homo sapiens, UniProt Q13153); assay: Kinase-tagged phage competition binding assay (qPCR), 382-kinase library
T3 construct: made in house; host or cells: E. coli BL21-derived host (T7 phage) or HEK-293

YSK4 = biological target: T4, YSK4 (Homo sapiens, UniProt Q56UN5); assay: as above
T4 construct: made in house; host or cells: E. coli BL21-derived host (T7 phage) or HEK-293
T4 sequence (Q56UN5 1-1328): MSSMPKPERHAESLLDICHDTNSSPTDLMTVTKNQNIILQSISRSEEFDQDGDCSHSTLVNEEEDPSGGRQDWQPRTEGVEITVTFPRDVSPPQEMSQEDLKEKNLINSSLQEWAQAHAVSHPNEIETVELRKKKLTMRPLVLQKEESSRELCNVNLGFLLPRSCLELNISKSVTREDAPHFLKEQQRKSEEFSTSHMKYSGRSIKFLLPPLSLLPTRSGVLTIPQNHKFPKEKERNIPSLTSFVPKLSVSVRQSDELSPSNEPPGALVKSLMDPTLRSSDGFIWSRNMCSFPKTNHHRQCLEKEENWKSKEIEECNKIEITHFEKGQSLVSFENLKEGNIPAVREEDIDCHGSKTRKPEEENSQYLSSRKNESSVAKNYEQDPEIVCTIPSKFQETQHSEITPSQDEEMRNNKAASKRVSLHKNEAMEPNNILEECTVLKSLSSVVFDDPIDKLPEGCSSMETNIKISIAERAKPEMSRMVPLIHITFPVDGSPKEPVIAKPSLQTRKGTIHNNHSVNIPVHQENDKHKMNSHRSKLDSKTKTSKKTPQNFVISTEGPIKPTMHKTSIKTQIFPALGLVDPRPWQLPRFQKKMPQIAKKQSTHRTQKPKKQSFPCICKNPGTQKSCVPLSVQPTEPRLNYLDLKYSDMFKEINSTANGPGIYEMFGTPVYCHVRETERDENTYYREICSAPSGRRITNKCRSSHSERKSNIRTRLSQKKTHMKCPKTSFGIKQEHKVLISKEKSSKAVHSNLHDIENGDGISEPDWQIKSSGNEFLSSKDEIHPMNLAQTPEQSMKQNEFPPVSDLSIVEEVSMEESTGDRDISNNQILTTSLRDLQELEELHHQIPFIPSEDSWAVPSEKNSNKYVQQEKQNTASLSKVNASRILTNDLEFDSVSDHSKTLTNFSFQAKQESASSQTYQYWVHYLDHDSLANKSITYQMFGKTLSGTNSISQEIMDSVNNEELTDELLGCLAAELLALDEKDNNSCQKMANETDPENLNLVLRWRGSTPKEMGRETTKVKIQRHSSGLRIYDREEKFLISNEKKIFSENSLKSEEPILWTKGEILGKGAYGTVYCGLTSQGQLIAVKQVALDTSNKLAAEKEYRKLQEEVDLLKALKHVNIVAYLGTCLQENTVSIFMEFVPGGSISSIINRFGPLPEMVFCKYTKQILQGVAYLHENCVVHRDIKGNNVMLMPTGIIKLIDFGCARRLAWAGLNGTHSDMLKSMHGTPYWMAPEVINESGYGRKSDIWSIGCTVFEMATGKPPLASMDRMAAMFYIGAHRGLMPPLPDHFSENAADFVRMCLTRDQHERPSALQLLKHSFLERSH

[2] = system: murine splenocytes stimulated with α-CD3 antibody; assay: Cytokine secretion after α-CD3 stimulation; type: cell-based, Balb/C mice; settings: Mus musculus, Splenocyte, 24 h
Procedure: The ability of test compounds to inhibit cytokine release by murine splenocytes after stimulation with α-CD3 antibody was also investigated.
2×10^6 splenocytes from Balb/C female mice, 8-10 weeks old in 220 μl of complete medium were stimulated with 0.1 μg of hamster anti mouse CD3ε antibody in presence of various concentrations of test compounds. After 24 h of incubation at 37° C., 5% CO2, supernatant were collected and cytokine titers were determined by flow cytometry according manufacturer protocols (MCB United States, Arlington, Mass., USA).
The results are shown in FIG. 1 compared to a DMSO negative control (▾). […].

PIK3CB = biological target: T5, PIK3CB (Homo sapiens, UniProt P42338); assay: Kinase-tagged phage competition binding assay (qPCR), 382-kinase library
T5 construct: made in house; host or cells: E. coli BL21-derived host (T7 phage) or HEK-293

RIOK2 = biological target: T6, RIOK2 (Homo sapiens, UniProt Q9BVS4); assay: as above
T6 construct: made in house; host or cells: E. coli BL21-derived host (T7 phage) or HEK-293

[3] = 10 μM compound, read-out: % Inhibition of substrate binding
[4] = stated for the 8 kinases of Table 1

T6 sequence (Q9BVS4 whole entry): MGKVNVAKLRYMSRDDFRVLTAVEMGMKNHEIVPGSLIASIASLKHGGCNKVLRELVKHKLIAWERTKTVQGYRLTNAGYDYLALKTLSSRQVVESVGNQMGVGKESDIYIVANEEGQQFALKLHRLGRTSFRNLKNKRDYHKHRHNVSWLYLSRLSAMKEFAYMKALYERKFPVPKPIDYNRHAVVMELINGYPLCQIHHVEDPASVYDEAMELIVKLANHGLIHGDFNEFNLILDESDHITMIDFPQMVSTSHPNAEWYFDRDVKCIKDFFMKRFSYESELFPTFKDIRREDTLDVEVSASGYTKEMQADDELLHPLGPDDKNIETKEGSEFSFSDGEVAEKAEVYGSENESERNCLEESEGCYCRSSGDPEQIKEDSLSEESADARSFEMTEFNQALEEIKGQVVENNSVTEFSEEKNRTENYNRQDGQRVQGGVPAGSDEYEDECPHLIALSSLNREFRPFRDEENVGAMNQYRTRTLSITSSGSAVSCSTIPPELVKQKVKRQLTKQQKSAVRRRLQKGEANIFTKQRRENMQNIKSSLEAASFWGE
T1 sequence (O94804 whole entry): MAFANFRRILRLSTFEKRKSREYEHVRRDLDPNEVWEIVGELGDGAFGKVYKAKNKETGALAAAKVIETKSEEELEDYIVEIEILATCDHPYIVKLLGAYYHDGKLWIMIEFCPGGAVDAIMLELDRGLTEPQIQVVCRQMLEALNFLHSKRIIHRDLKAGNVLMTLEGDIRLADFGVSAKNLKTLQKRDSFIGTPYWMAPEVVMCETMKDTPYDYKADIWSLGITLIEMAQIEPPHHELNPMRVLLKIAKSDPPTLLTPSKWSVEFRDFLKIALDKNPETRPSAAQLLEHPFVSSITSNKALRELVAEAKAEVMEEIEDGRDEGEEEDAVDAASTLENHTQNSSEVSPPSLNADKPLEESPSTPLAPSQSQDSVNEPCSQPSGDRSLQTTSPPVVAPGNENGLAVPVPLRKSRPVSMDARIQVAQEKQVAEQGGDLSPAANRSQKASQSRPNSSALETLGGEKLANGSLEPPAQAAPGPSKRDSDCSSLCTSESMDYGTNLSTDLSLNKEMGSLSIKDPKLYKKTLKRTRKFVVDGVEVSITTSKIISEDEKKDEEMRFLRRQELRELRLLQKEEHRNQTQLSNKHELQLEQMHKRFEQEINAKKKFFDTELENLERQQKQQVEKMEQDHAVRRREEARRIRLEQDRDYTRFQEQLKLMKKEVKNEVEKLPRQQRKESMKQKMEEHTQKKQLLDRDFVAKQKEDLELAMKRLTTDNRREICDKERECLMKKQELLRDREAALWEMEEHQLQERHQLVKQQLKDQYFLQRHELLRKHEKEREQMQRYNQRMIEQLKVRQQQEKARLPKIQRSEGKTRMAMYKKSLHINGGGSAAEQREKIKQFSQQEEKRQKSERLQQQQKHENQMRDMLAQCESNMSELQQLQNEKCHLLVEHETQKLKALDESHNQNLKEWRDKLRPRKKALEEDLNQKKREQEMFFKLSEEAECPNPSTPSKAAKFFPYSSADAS
T5 sequence (P42338 whole entry): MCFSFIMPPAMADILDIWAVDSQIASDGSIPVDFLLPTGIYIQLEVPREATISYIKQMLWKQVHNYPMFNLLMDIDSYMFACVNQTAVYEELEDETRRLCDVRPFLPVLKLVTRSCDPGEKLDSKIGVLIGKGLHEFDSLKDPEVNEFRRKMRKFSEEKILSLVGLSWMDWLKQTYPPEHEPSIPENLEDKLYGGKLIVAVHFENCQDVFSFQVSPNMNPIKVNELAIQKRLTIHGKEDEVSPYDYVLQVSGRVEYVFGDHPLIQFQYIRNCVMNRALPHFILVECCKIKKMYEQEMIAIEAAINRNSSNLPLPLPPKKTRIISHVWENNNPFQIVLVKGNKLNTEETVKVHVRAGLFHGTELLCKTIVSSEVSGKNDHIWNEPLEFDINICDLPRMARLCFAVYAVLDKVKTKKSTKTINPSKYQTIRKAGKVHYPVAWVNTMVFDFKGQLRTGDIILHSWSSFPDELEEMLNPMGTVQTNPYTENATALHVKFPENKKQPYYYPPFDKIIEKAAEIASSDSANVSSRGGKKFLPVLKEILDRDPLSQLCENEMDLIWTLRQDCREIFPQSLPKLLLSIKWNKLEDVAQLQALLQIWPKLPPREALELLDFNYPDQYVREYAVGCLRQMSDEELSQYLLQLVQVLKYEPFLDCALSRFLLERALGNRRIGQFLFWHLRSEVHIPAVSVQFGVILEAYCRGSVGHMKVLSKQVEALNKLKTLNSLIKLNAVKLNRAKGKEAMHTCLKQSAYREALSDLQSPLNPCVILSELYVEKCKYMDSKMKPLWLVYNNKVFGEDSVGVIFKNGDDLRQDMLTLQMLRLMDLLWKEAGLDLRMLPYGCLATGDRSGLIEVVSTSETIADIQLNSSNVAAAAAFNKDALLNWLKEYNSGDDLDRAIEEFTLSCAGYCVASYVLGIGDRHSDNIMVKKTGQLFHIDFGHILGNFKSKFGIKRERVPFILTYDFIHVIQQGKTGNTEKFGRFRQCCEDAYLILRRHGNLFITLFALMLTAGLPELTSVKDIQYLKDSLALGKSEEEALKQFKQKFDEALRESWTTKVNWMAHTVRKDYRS
T3 sequence (Q13153 whole entry): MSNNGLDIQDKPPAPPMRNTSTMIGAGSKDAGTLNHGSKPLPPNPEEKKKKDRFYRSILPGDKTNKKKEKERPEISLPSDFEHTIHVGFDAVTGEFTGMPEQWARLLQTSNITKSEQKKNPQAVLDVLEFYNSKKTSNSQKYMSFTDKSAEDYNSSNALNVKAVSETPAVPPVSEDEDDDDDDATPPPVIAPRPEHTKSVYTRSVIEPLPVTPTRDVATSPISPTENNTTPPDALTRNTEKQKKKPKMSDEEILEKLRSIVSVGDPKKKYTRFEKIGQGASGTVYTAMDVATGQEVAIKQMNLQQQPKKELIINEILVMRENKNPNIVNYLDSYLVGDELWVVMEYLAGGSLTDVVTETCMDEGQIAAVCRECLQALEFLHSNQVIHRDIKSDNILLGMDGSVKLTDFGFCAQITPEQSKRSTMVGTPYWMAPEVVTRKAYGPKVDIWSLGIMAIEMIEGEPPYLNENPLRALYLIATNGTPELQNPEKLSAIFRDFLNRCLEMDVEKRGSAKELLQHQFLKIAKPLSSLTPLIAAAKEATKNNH

## Nc1nc(N2CCN(C(=O)COc3ccc(Cl)cc3)CC2)c2nc(-c3cccnc3)sc2n1 [formula (1), 5-amino-7-[4-(4-chlorophenoxyacetyl)piperazin-1-yl]-2-(pyridin-3-yl)thiazolo[5,4-d]pyrimidine]
LOK; [3]
  inhibition at 10 µM: 100%
LOK; [4]
  IC50: < 10 µM
PI4KA (PI4K alpha)
  Kinase activity: 99 percentage of control
[1]; RPMI-1788, 144 h, read-out: IC50 MLR, 6 days culture
  IC50: < 0.05 µM
[1]; read-out: IC50 MLR, 6 days culture
  IC50: 0.03 µM
PAK1; [3]
  inhibition at 10 µM: 54%
PAK1; [4]
  IC50: < 10 µM
YSK4; [3]
  inhibition at 10 µM: 79%
YSK4; [4]
  IC50: < 10 µM
[2]; read-out: IC50 for inhibition of IFNγ release
  IC50: 0.204 µM
[2]; read-out: IC50 for inhibition of IL2 release
  IC50: 0.076 µM
PIK3CB; [3]
  inhibition at 10 µM: 56%
PIK3CB; [4]
  IC50: < 10 µM
RIOK2; [3]
  inhibition at 10 µM: 94%
RIOK2; [4]
  IC50: < 10 µM
